# Assay results published in ChEMBL document CHEMBL1147026, “Synthesis of pseudopeptides based L-tryptophan as a potential antimicrobial agent” (Bioorg Med Chem Lett, 2007).
# Activity calls are given as the source filed them. The rule behind the calls is not given here.
# Experiments:
# Staphylococcus aureus [1] = test: Antibacterial activity against methicillin-susceptible Staphylococcus aureus ATCC 25923 after 24 hrs by two fold dilution method; assay type: functional; details: ATCC 25923, 24 h
# Staphylococcus aureus [2] = test: Antibacterial activity against methicillin-resistant Staphylococcus aureus CMAH 0430 upto 128 ug/mL after 24 hrs by two fold dilution method; assay type: functional, organism-based
# Staphylococcus aureus [3] = test: Antibacterial activity against methicillin-resistant Staphylococcus aureus CMAH 0504 upto 128 ug/mL by two fold dilution method; assay type: functional, organism-based
# Staphylococcus aureus [4] = test: Antibacterial activity against methicillin-resistant Staphylococcus aureus CMAH 0515 upto 128 ug/mL after 24 hrs by two fold dilution method; assay type: functional, organism-based
# Bacillus subtilis = test: Antimicrobial activity against Bacillus subtilis after 24 hrs by two fold dilution method; assay type: functional
# Escherichia coli [5] = test: Antimicrobial activity against Escherichia coli ATCC 25922 upto 128 ug/mL after 24 hrs by two fold dilution method; assay type: functional, organism-based
# Pseudomonas aeruginosa [6] = test: Antimicrobial activity against Pseudomonas aeruginosa ATCC 27853 upto 128 ug/mL after 24 hrs by two fold dilution method; assay type: functional, organism-based
# Proteus vulgaris [7] = test: Antimicrobial activity against Proteus vulgaris CMCC(B) 49001 upto 128 ug/mL after 24 hrs by two fold dilution method; assay type: functional, organism-based
# Klebsiella aerogenes [8] = test: Antibacterial activity against Enterobacter aerogenes CMCC(B) 45103 upto 128 ug/mL after 24 hrs by two fold dilution method; assay type: functional, organism-based
# Micrococcus luteus [9] = test: Antimicrobial activity against Micrococcus luteus CMCC(B) 28001 upto 128 ug/mL after 24 hrs by two fold dilution method; assay type: functional, organism-based
# Candida albicans [10] = test: Antifungal activity against Candida albicans ATCC 10231 after 48 to 72 hrs by broth microdilution method; assay type: functional
# Candida albicans [11] = test: Antifungal activity against Candida albicans CMAH 0501 after 48 to 72 hrs by broth microdilution method; assay type: functional
# Candida albicans [12] = test: Antifungal activity against Candida albicans CMAH 0503 after 48 to 72 hrs by broth microdilution method; assay type: functional
# Candida albicans [13] = test: Antifungal activity against Candida albicans CMAH 0507 after 48 to 72 hrs by broth microdilution method; assay type: functional
# Candida albicans [14] = test: Antifungal activity against Candida albicans CMAH 0511 after 48 to 72 hrs by broth microdilution method; assay type: functional
# Candida albicans [15] = test: Antifungal activity against fluconazole-resistant Candida albicans CMAH 0520 after 48 to 72 hrs by broth microdilution method; assay type: functional
# Candida albicans [16] = test: Antifungal activity against Candida albicans CMAH 0527 after 48 to 72 hrs by broth microdilution method; assay type: functional
# Candida albicans [17] = test: Antifungal activity against Candida albicans CMAH 0572 upto 128 ug/mL after 48 to 72 hrs by broth microdilution method; assay type: functional, organism-based
# Candida albicans [18] = test: Antifungal activity against Candida albicans CMAM 0577 upto 128 ug/mL after 48 to 72 hrs by broth microdilution method; assay type: functional, organism-based
# Candida albicans [19] = test: Antifungal activity against Candida albicans CMAM 0592 upto 128 ug/mL after 48 to 72 hrs by broth microdilution method; assay type: functional, organism-based
# Candida albicans [20] = test: Antifungal activity against Candida albicans CMAM 0594 upto 128 ug/mL after 48 to 72 hrs by broth microdilution method; assay type: functional, organism-based
# Candida albicans [21] = test: Antifungal activity against fluconazole-resistant Candida albicans CMAM 0597 upto 128 ug/mL after 48 to 72 hrs by broth microdilution method; assay type: functional, organism-based
# Cryptococcus neoformans [22] = test: Antifungal activity against Cryptococcus neoformans ATCC 90112 upto 128 ug/mL after 48 to 72 hrs by broth microdilution method; assay type: functional, organism-based
# Saccharomyces cerevisiae [23] = test: Antimicrobial activity against Saccharomyces cerevisiae upto 128 ug/mL after 48 to 72 hrs by broth microdilution method; assay type: functional, organism-based
# Rhodotorula glutinis = test: Antimicrobial activity against Rhodotorula glutinis SYM 2209 after 48 to 72 hrs by broth microdilution method; assay type: functional
# Aspergillus sp. = test: Antifungal activity against Aspergillus sp. after 48 to 72 hrs by broth microdilution method; assay type: functional
# Candida albicans [24] = test: Antifungal activity against Candida albicans CMAH 0572 after 48 to 72 hrs by broth microdilution method; assay type: functional
# Candida albicans [25] = test: Antifungal activity against Candida albicans CMAM 0577 after 48 to 72 hrs by broth microdilution method; assay type: functional
# Candida albicans [26] = test: Antifungal activity against Candida albicans CMAM 0592 after 48 to 72 hrs by broth microdilution method; assay type: functional
# Candida albicans [27] = test: Antifungal activity against Candida albicans CMAM 0594 after 48 to 72 hrs by broth microdilution method; assay type: functional
# Candida albicans [28] = test: Antifungal activity against fluconazole-resistant Candida albicans CMAM 0597 after 48 to 72 hrs by broth microdilution method; assay type: functional
# Cryptococcus neoformans [29] = test: Antifungal activity against Cryptococcus neoformans ATCC 90112 after 48 to 72 hrs by broth microdilution method; assay type: functional
# Saccharomyces cerevisiae [30] = test: Antimicrobial activity against Saccharomyces cerevisiae after 48 to 72 hrs by broth microdilution method; assay type: functional
# Staphylococcus aureus [31] = test: Antibacterial activity against methicillin-resistant Staphylococcus aureus CMAH 0430 after 24 hrs by two fold dilution method; assay type: functional
# Staphylococcus aureus [32] = test: Antibacterial activity against methicillin-resistant Staphylococcus aureus CMAH 0504 after 24 hrs by two fold dilution method; assay type: functional
# Staphylococcus aureus [33] = test: Antibacterial activity against methicillin-resistant Staphylococcus aureus CMAH 0515 after 24 hrs by two fold dilution method; assay type: functional
# Escherichia coli [34] = test: Antimicrobial activity against Escherichia coli ATCC 25922 after 24 hrs by two fold dilution method; assay type: functional; details: ATCC 25922, 24 h
# Pseudomonas aeruginosa [35] = test: Antimicrobial activity against Pseudomonas aeruginosa ATCC 27853 after 24 hrs by two fold dilution method; assay type: functional; details: ATCC 27853, 24 h
# Proteus vulgaris [36] = test: Antimicrobial activity against Proteus vulgaris CMCC(B) 49001 after 24 hrs by two fold dilution method; assay type: functional
# Klebsiella aerogenes [37] = test: Antibacterial activity against Enterobacter aerogenes CMCC(B) 45103 after 24 hrs by two fold dilution method; assay type: functional
# Micrococcus luteus [38] = test: Antimicrobial activity against Micrococcus luteus CMCC(B) 28001 after 24 hrs by two fold dilution method; assay type: functional
smiles,measurement,setting,value
COC(=O)[C@H](Cc1c[nH]c2ccccc12)NC(=O)c1cccc(C(=O)N[C@@H](Cc2c[nH]c3ccccc23)C(=O)OC)n1,MIC,Staphylococcus aureus [1],64 µg/mL
same,Activity,Staphylococcus aureus [2],inactive
same,Activity,Staphylococcus aureus [3],inactive
same,Activity,Staphylococcus aureus [4],inactive
same,MBC,Bacillus subtilis,> 128 µg/mL
same,MIC,Bacillus subtilis,32 µg/mL
same,Activity,Escherichia coli [5],inactive
same,Activity,Pseudomonas aeruginosa [6],inactive
same,Activity,Proteus vulgaris [7],inactive
same,Activity,Klebsiella aerogenes [8],inactive
same,Activity,Micrococcus luteus [9],inactive
same,MFC,Candida albicans [10],128 µg/mL
same,MIC,Candida albicans [10],32 µg/mL
same,MFC,Candida albicans [11],128 µg/mL
same,MIC,Candida albicans [11],32 µg/mL
same,MFC,Candida albicans [12],128 µg/mL
same,MIC,Candida albicans [12],32 µg/mL
same,MIC,Candida albicans [13],64 µg/mL
same,MBC,Candida albicans [14],128 µg/mL
same,MIC,Candida albicans [14],32 µg/mL
same,MIC,Candida albicans [15],64 µg/mL
same,MBC,Candida albicans [16],128 µg/mL
same,MIC,Candida albicans [16],32 µg/mL
same,Activity,Candida albicans [17],inactive
same,Activity,Candida albicans [18],inactive
same,Activity,Candida albicans [19],inactive
same,Activity,Candida albicans [20],inactive
same,Activity,Candida albicans [21],inactive
same,Activity,Cryptococcus neoformans [22],inactive
same,Activity,Saccharomyces cerevisiae [23],inactive
same,MFC,Rhodotorula glutinis,128 µg/mL
same,MIC,Rhodotorula glutinis,32 µg/mL
same,MIC50,Aspergillus sp.; Aspergillus sp.,> 128 µg/mL
same,MIC90,Aspergillus sp.; Aspergillus sp.,> 128 µg/mL
C[C@@H]1[C@H](O)[C@@H](C)/C=C/C=C/C=C/C=C/C=C/C=C/C=C/[C@H](O[C@@H]2O[C@H](C)[C@@H](O)[C@H](N)[C@@H]2O)C[C@@H]2O[C@](O)(C[C@@H](O)C[C@@H](O)[C@H](O)CC[C@@H](O)C[C@@H](O)CC(=O)O[C@H]1C)C[C@H](O)[C@H]2C(=O)O [AMPHOTERICIN B],MFC,Candida albicans [10],0.25 µg/mL
same,MIC,Candida albicans [10],0.13 µg/mL
same,MFC,Candida albicans [11],1 µg/mL
same,MIC,Candida albicans [11],0.25 µg/mL
same,MFC,Candida albicans [12],0.5 µg/mL
same,MIC,Candida albicans [12],0.25 µg/mL
same,MFC,Candida albicans [13],0.5 µg/mL
same,MIC,Candida albicans [13],0.5 µg/mL
same,MFC,Candida albicans [14],2 µg/mL
same,MIC,Candida albicans [14],1 µg/mL
same,MFC,Candida albicans [15],0.5 µg/mL
same,MIC,Candida albicans [15],0.25 µg/mL
same,MFC,Candida albicans [16],1 µg/mL
same,MIC,Candida albicans [16],0.5 µg/mL
same,MFC,Candida albicans [24],4 µg/mL
same,MIC,Candida albicans [24],1 µg/mL
same,MFC,Candida albicans [25],4 µg/mL
same,MIC,Candida albicans [25],1 µg/mL
same,MFC,Candida albicans [26],2 µg/mL
same,MIC,Candida albicans [26],2 µg/mL
same,MFC,Candida albicans [27],4 µg/mL
same,MIC,Candida albicans [27],4 µg/mL
same,MFC,Candida albicans [28],4 µg/mL
same,MIC,Candida albicans [28],2 µg/mL
same,MFC,Cryptococcus neoformans [29],1 µg/mL
same,MIC,Cryptococcus neoformans [29],0.25 µg/mL
same,MFC,Saccharomyces cerevisiae [30],0.5 µg/mL
same,MIC,Saccharomyces cerevisiae [30],0.25 µg/mL
same,MFC,Rhodotorula glutinis,> 64 µg/mL
same,MIC,Rhodotorula glutinis,16 µg/mL
same,MFC50,Aspergillus sp.,2 µg/mL
same,MFC90,Aspergillus sp.,8 µg/mL
same,MFC,Aspergillus sp.; Aspergillus sp.,2.96 µg/mL
same,MIC,Aspergillus sp.; Aspergillus sp.,1.61 µg/mL
same,MIC50,Aspergillus sp.; Aspergillus sp.,1 µg/mL
same,MIC90,Aspergillus sp.; Aspergillus sp.,4 µg/mL
CC1(C)S[C@@H]2[C@H](NC(=O)[C@H](N)c3ccccc3)C(=O)N2[C@H]1C(=O)O [AMPICILLIN],MBC,Staphylococcus aureus [1],0.5 µg/mL
same,MIC,Staphylococcus aureus [1],0.25 µg/mL
same,MIC,Staphylococcus aureus [31],> 64 µg/mL
same,MIC,Staphylococcus aureus [32],> 64 µg/mL
same,MIC,Staphylococcus aureus [33],> 64 µg/mL
same,MBC,Bacillus subtilis,0.25 µg/mL
same,MIC,Bacillus subtilis,0.3 µg/mL
same,MBC,Escherichia coli [34],64 µg/mL
same,MIC,Escherichia coli [34],32 µg/mL
same,MIC,Pseudomonas aeruginosa [35],> 64 µg/mL
same,MBC,Proteus vulgaris [36],0.5 µg/mL
same,MIC,Proteus vulgaris [36],0.3 µg/mL
same,MIC,Klebsiella aerogenes [37],> 64 µg/mL
same,MBC,Micrococcus luteus [38],0.5 µg/mL
same,MIC,Micrococcus luteus [38],0.3 µg/mL
same,MFC,Candida albicans [11],128 µg/mL
same,MIC,Candida albicans [11],32 µg/mL
